The values that follow come from ChEMBL document CHEMBL1649353, “Spectroscopic characterization and antiproliferative activity on HepG2 human hepatoblastoma cells of flavonoid C-glycosides from Petrorhagia velutina” (2010).

Activity calls are given as the source filed them. The rule behind the calls is not given here.

For assay [1], the system named is HepG2. The assay can be described thus: Antiproliferative activity against human HepG2 cells at 6.25 to 50 uM after 48 hrs by MTT assay. It counts as functional, cell-based. (Tetrazolium dyes change colour on reduction, which living cells bring about.)
For assay [2], the system named is HepG2. Nature of the assay: Antiproliferative activity against human HepG2 cells at 25 uM after 48 hrs by MTT assay. Format: functional.
Assay [3] concerns HepG2. Nature of the assay: Antiproliferative activity against human HepG2 cells at 6.25 uM after 48 hrs by MTT assay. It counts as functional.
For assay [4], the system named is HepG2. The assay can be described thus: Antiproliferative activity against human HepG2 cells at 12.5 uM after 48 hrs by MTT assay. Format: functional.
The subject of assay [5] is HepG2. Nature of the assay: Antiproliferative activity against human HepG2 cells at 25 uM after 24 hrs by MTT assay. Format: functional.
Assay [6] deals with HepG2. Nature of the assay: Antiproliferative activity against human HepG2 cells at 6.25 uM after 24 hrs by MTT assay. It counts as functional.
Assay [7] relates to HepG2. The assay can be described thus: Antiproliferative activity against human HepG2 cells at 6.25 to 50 uM after 24 hrs by MTT assay. Format: functional, cell-based.

Regarding `C[C@@H]1O[C@@H](O[C@@H]2[C@@H](O)[C@@H](O)CO[C@H]2c2c(O)cc3oc(-c4ccc(O)c(O)c4)cc(=O)c3c2O)[C@H](O)[C@H](O)[C@H]1O`, the outcome in the assay with HepG2 [1] was Active.

Regarding `C[C@@H]1O[C@@H](O[C@@H]2[C@@H](O)[C@H](O)[C@@H](CO)O[C@H]2c2c(O)cc3oc(-c4ccc(O)c(O)c4)cc(=O)c3c2O)[C@H](O)[C@H](O)[C@H]1O`, the Activity in the assay with HepG2 [2] is reported as 74.9%.

Take `O=c1cc(-c2ccc(O)c(O)c2)oc2cc(O)c([C@@H]3O[C@H](CO)[C@@H](O)[C@H](O)[C@H]3O)c(O)c12` [ISOORIENTIN]: the Activity is 84% in the assay on HepG2 [3], 92% with HepG2 [4], 26.1% in the assay on HepG2 [5] and 19.6% in the assay on HepG2 [6].

As to `O=C1C[C@@H](c2ccc(O)cc2)Oc2c1c(O)cc(O[C@@H]1O[C@H](CO)[C@@H](O)[C@H](O)[C@H]1O)c2[C@@H]1OC[C@H](O)[C@H](O)[C@H]1O`, in the assay on HepG2 [7], the result was inactive.
